Assay results: ChEMBL document CHEMBL3774368, “1,2,4-Triazolyl octahydropyrrolo[2,3-b]pyrroles: A new series of potent and selective dopamine D3 receptor antagonists” (Bioorg Med Chem, 2016)
The source made the active and inactive calls. The rule behind the calls is not given here.

Columns and labels:
[1] = biological target: D(1A) dopamine receptor (Homo sapiens) (UniProt P21728); experiment: Binding affinity to dopamine D1 receptor (unknown origin)
[2] = Half life in portal vein cannulated Sprague-Dawley rat model; details: in vivo
[3] = in vitro; details: rat, liver microsomes, CLH
[4] = in vitro; details: human, liver microsomes, CLH
[5] = biological target: T1, Cytochrome P450 3A4 (Homo sapiens, UniProt P08684); experiment: Inhibition of recombinant human CYP3A4 expressed in baculosomes preincubated for 10 mins followed by cofactor addition measured every minute for 10 mins using diethoxyflourescein as substrate by CYPEX assay
[6] = biological target: D(3) dopamine receptor (Homo sapiens, UniProt P35462); experiment: Displacement of [3H]-spiperone from human dopamine D3 receptor expressed in CHO-K1 cell membranes after 90 mins by liquid scintillation counter method
[7] = Fraction unbound in Sprague-Dawley rat blood
[8] = Permeability across apical to basolateral side in human Caco2 cells; details: for permeability: Caco-2
[9] = Volume of distribution at steady state in portal vein cannulated Sprague-Dawley rat model; details: in vivo
[10] = biological target: Cytochrome P450 2C9 (Homo sapiens, UniProt P11712); experiment: Inhibition of recombinant human CYP2C9 expressed in baculosomes preincubated for 10 mins followed by cofactor addition measured every minute for 10 mins using 7-methoxy-4-trifluoromethylcoumarin-3-acetic acid as substrate by CYPEX assay
[11] = Solubility of compound; assay type: physicochemical
[12] = Fraction unbound in Sprague-Dawley rat brain
[13] = in vivo; details: Sprague-Dawley, rat, po
[14] = biological target: T1, Cytochrome P450 3A4; experiment: Inhibition of recombinant human CYP3A4 expressed in baculosomes preincubated for 10 mins followed by cofactor addition measured every minute for 10 mins using 7-benzyloxyquinoline as substrate by CYPEX assay
[15] = biological target: Cytochrome P450 2C19 (Homo sapiens, UniProt P33261); experiment: Inhibition of recombinant human CYP2C19 expressed in baculosomes preincubated for 10 mins followed by cofactor addition measured every minute for 10 mins using 3-butyryl-7-methoxycoumarin as substrate by CYPEX assay
[16] = Clearance in portal vein cannulated Sprague-Dawley rat blood; details: whole blood
[17] = Fraction absorbed in portal vein cannulated Sprague-Dawley rat model; details: in vivo
[18] = biological target: Muscarinic acetylcholine receptor M3 (Homo sapiens, UniProt P20309); experiment: Antagonist activity at recombinant human muscarinic M3 receptor expressed in CHO-K1 cells assessed as inhibition of acetylcholine induced calcium mobilization preincubated for 10 mins followed by acetylcholine addition measured after 1 hr by fluo-4 AM dye-based FLIPR assay; assay type: functional, cell-based
[19] = biological target: Cytochrome P450 2D6 (Homo sapiens, UniProt P10635); experiment: Inhibition of recombinant human CYP2D6 expressed in baculosomes preincubated for 10 mins followed by cofactor addition measured every minute for 10 mins using 4-methylaminomethyl-7-methoxycoumarin as substrate by CYPEX assay
[20] = biological target: T2, Cytochrome P450 1A2 (Homo sapiens, UniProt P05177); experiment: Inhibition of recombinant human CYP1A2 expressed in baculosomes preincubated for 10 mins followed by cofactor addition measured every minute for 10 mins using ethoxyresorufin as substrate by CYPEX assay
T2 sequence (P05177 whole entry): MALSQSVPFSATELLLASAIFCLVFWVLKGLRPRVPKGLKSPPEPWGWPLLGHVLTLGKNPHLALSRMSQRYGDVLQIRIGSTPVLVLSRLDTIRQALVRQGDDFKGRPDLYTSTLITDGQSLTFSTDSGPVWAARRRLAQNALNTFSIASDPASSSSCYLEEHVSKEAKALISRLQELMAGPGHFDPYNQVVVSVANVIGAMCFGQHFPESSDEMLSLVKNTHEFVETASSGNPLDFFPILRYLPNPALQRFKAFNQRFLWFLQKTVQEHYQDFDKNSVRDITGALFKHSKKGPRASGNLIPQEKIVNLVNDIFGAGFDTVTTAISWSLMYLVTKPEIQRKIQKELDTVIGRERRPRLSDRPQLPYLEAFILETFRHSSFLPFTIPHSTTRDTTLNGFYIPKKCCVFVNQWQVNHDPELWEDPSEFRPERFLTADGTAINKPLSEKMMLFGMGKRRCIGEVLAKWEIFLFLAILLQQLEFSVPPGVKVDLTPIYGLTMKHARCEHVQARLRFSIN

[21] = biological target: T3, Muscarinic acetylcholine receptor M1 (Homo sapiens, UniProt P11229); experiment: Antagonist activity at recombinant human muscarinic M1 receptor expressed in CHO-K1 cells assessed as inhibition of acetylcholine induced calcium mobilization preincubated for 10 mins followed by acetylcholine addition measured after 1 hr by fluo-4 AM dye-based FLIPR assay; assay type: functional, cell-based
T3 sequence (P11229 whole entry): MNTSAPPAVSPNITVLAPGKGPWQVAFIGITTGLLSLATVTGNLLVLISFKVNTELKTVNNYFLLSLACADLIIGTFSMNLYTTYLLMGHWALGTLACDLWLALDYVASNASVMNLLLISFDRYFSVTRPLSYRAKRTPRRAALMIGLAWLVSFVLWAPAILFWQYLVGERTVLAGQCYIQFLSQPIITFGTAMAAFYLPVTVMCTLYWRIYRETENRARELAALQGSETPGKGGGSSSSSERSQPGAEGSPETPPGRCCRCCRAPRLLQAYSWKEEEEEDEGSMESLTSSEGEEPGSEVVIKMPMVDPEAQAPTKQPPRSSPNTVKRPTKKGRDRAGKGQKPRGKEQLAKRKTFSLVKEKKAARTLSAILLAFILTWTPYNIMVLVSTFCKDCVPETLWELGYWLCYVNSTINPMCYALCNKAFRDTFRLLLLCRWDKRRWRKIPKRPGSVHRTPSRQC

[22] = biological target: T4, D(4) dopamine receptor (Homo sapiens) (UniProt P21917); experiment: Binding affinity to dopamine D4 receptor (unknown origin)
T4 sequence (whole entry): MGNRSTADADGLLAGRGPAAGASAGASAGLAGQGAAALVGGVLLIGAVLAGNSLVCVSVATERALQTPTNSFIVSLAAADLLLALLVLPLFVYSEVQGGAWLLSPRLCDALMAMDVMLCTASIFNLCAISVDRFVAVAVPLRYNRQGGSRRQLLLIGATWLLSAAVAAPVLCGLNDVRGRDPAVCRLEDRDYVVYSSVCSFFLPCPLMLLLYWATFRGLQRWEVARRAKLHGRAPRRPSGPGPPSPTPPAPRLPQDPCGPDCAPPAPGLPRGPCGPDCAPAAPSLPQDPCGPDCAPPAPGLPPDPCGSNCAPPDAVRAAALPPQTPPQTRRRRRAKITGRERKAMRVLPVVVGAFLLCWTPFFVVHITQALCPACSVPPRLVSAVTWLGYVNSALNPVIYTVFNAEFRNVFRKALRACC

[23] = biological target: D(2) dopamine receptor (Homo sapiens, UniProt P14416); experiment: Displacement of [3H]-spiperone from human dopamine D2 receptor expressed in CHO-K1 cell membranes after 120 mins by liquid scintillation counter method
[24] = biological target: Voltage-gated inwardly rectifying potassium channel KCNH2 (Homo sapiens, UniProt Q12809); experiment: Inhibition of human ERG tail current expressed in HEK293 cells after 5 mins by patch clamp assay
[25] = species: Homo sapiens; experiment: Selectivity ratio of IC50 for human ERG to Ki for human dopamine D3 receptor

Sequence of D(2) dopamine receptor (P14416 whole entry): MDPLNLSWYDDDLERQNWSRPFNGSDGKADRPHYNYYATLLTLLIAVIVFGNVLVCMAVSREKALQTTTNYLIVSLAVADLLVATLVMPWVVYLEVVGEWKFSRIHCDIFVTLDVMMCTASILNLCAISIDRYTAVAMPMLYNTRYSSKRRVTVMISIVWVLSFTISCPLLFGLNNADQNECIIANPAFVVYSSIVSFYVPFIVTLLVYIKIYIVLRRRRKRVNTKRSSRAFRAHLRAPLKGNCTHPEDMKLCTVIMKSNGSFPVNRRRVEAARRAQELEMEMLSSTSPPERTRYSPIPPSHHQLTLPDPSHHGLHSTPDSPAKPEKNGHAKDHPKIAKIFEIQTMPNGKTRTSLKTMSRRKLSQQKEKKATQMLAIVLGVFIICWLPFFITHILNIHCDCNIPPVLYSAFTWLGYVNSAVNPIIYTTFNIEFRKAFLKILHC
Sequence of Cytochrome P450 2C9 (P11712 whole entry): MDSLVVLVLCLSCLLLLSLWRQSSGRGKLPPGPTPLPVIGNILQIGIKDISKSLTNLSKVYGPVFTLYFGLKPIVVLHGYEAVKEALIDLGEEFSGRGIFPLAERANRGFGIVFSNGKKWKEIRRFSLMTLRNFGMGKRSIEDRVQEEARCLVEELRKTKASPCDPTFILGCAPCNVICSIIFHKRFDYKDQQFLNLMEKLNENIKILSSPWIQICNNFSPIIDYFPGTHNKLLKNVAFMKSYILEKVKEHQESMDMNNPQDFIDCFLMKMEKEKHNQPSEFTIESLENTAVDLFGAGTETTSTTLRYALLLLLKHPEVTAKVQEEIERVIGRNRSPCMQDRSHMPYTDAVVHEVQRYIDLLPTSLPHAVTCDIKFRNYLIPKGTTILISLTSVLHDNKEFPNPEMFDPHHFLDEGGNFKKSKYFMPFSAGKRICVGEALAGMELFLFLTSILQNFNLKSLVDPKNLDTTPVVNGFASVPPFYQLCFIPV
T1 sequence (P08684 whole entry): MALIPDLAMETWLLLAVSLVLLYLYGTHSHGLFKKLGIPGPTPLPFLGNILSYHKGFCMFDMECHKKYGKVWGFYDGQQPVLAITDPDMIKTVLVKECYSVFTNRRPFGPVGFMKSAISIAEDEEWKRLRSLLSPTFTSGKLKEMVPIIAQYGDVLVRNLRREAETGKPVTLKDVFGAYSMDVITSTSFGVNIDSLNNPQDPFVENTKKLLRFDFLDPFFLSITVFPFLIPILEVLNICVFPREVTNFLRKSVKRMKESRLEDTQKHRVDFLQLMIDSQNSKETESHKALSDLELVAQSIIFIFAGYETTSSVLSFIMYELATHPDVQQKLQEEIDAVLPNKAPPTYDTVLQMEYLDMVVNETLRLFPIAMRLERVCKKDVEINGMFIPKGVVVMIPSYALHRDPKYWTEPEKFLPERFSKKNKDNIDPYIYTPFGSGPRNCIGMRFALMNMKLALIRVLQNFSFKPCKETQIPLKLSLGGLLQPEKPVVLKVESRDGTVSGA
Sequence of D(3) dopamine receptor (P35462 whole entry): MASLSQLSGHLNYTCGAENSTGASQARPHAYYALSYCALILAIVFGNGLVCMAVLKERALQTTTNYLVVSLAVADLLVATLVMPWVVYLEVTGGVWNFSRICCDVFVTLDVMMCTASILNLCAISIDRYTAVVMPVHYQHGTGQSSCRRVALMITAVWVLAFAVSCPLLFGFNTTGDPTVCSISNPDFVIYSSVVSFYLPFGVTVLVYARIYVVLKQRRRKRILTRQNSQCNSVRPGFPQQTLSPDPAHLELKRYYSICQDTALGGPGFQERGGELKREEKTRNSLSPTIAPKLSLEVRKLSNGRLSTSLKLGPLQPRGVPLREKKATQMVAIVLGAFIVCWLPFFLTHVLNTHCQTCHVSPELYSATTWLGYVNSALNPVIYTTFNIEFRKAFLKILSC
Sequence of Cytochrome P450 2D6 (P10635 whole entry): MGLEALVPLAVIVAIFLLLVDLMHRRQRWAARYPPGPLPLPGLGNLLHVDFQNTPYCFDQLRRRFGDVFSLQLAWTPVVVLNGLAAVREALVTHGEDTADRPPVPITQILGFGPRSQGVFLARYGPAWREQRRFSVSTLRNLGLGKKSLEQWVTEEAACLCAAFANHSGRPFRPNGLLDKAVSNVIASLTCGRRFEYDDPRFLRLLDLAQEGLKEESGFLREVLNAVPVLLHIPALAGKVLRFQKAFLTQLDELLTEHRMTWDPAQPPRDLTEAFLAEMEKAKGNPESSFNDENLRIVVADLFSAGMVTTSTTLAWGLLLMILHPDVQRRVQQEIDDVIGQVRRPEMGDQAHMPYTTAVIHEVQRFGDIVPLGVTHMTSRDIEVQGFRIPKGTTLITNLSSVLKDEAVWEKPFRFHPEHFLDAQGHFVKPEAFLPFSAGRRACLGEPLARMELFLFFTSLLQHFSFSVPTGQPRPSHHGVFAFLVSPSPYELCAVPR
Sequence of Cytochrome P450 2C19 (P33261 whole entry): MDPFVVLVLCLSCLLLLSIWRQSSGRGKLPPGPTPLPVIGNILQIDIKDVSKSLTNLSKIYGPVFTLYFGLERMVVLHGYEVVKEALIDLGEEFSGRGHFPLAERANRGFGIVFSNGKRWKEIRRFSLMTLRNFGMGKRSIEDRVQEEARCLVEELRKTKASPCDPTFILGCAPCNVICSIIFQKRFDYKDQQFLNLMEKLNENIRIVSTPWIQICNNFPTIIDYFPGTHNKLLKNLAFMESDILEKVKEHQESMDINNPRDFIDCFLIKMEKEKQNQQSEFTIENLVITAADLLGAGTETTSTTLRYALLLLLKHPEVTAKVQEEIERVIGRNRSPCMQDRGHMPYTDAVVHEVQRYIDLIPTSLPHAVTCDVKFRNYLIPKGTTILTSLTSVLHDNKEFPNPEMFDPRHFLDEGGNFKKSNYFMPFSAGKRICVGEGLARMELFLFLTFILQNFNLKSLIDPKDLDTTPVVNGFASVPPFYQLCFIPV
Sequence of D(1A) dopamine receptor (Homo sapiens) (P21728 whole entry): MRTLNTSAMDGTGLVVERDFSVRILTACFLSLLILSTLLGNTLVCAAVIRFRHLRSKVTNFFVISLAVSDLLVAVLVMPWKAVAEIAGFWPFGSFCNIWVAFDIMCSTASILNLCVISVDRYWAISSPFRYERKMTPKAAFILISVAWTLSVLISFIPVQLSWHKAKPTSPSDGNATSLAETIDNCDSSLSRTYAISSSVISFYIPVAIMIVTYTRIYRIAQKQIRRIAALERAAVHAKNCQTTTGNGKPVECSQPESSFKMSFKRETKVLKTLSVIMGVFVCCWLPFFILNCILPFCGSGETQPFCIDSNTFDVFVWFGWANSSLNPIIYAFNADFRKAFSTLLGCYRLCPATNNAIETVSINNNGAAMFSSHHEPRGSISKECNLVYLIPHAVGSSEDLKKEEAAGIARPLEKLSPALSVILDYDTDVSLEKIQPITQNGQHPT
Sequence of Muscarinic acetylcholine receptor M3 (P20309 whole entry): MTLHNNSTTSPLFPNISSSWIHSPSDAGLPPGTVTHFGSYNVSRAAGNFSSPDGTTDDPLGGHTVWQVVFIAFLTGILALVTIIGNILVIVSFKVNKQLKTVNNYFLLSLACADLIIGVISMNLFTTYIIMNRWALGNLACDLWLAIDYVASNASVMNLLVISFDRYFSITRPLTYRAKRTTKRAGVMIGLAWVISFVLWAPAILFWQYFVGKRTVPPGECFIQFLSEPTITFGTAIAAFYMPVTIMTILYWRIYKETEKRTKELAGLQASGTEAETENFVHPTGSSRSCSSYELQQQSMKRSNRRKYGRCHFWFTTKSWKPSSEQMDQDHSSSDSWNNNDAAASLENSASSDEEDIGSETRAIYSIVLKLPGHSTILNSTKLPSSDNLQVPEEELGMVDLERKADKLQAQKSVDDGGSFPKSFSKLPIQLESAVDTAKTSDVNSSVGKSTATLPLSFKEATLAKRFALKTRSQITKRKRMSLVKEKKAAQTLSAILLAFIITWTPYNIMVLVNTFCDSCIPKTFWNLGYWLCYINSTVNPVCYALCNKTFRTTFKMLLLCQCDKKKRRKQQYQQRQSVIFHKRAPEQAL
Sequence of Voltage-gated inwardly rectifying potassium channel KCNH2 (Q12809 whole entry): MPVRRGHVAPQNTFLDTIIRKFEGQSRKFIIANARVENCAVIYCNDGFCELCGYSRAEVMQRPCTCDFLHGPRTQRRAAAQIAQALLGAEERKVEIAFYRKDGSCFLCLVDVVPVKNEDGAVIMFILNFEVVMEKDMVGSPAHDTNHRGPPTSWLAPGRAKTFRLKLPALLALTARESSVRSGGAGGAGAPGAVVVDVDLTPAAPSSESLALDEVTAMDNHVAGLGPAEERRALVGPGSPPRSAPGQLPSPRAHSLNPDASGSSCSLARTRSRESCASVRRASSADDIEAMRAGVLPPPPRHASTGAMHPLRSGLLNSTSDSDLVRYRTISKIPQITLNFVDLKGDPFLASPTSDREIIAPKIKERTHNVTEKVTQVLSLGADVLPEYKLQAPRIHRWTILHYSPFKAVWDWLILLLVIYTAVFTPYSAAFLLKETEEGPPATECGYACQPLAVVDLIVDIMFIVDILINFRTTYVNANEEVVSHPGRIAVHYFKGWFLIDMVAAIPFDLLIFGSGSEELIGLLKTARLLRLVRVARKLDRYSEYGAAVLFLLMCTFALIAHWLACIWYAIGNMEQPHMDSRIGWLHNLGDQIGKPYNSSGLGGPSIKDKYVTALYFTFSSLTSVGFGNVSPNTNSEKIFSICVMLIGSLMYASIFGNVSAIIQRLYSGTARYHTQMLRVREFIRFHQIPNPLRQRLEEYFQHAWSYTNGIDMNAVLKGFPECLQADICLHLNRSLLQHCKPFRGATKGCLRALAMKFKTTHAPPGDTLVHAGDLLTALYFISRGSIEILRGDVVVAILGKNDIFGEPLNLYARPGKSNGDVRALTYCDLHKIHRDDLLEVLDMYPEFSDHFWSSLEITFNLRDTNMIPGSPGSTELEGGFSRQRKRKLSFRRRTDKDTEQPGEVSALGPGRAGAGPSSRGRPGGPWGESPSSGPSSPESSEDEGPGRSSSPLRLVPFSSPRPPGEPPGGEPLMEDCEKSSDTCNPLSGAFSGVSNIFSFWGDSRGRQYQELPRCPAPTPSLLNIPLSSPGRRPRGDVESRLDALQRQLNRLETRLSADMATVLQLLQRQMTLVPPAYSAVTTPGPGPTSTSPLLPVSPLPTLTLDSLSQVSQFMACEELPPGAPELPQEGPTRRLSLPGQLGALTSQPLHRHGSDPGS

SMILES	microsomal CLint at 0.5 µM [3] [µL/min/mg]	microsomal CLint at 0.5 µM [4] [µL/min/mg]	IC50 [5] [µM]	Ki [6] [nM]	fraction unbound [7]	IC50 [10] [µM]	fraction unbound [12]	IC50 [14] [nM]	IC50 [15] [µM]	IC50 [19] [µM]	IC50 [20] [µM]	Ki [23] [nM]	further results
Cc1ncoc1-c1nnc(SCCCN2CC3CCN(c4ccc(C(F)(F)F)cc4F)C3C2)n1C (stereo in doubt; 8b)													Activity [1]: inactive
Cn1c(SCCCN2CC3CCN(c4ccccc4)C3C2)nnc1C1CCOCC1 (stereo in doubt; 62a) [listing 1 of 2 here]	272	26	> 17	6.31	0.31	> 17	0.33	> 17000	> 17	> 17	> 17		half-life [2]: 18 min; permeability [8]: permeable; Vd [9]: 0.44 L/kg; solubility [11]: > 2000 µg/mL; bioavailability [13]: < 1%; clearance [16]: 20 mL/min/kg; Fa [17]: 5.5%; Ki [18]: 1450 nM; Ki [21]: 1020 nM
Cn1c(SCCCN2CC3CCN(c4ccccc4)C3C2)nnc1C1CCOCC1 (stereo in doubt; 62a) [listing 2 of 2 here]													Activity [22]: inactive; Activity [1]: inactive
Cn1c(SCCCN2CC3CCN(c4ccc(F)cc4F)C3C2)nnc1-c1cnccn1 (stereo in doubt; 36b)	> 650	> 650	> 1	3.98		> 1		> 1000	> 1	> 1	> 1	316	
Cc1ncoc1-c1nnc(SCCCN2CC3CCN(c4cccc(F)c4)C3C2)n1C (racemic)				3.16								158	IC50 [24]: 251 nM; Selectivity ratio [25]: 100
Cc1ncoc1-c1nnc(SCCCN2CC3CCN(c4cccc(C#N)c4)C3C2)n1C (stereo in doubt; 12a)				0.631								31.6	solubility [11]: > 2200 µg/mL; IC50 [24]: < 100 nM

The next lines start with results.

microsomal CLint at 0.5 µM [3] [µL/min/mg]	microsomal CLint at 0.5 µM [4] [µL/min/mg]	IC50 [5] [µM]	Ki [6] [nM]	fraction unbound [7]	IC50 [10] [µM]	fraction unbound [12]	IC50 [14] [nM]	IC50 [15] [µM]	IC50 [19] [µM]	IC50 [20] [µM]	Ki [23] [nM]	SMILES	further results
23	152											Cn1c(SCCCN2CC3CCN(c4ccc(C(F)(F)F)cc4)C3C2)nnc1-c1ccc(=O)n(C)c1 (stereo in doubt; 57a)	permeability [8]: 39 nm/s
> 750	> 750	> 1	7.94	0.024	> 1	0.13	> 1000	> 1	> 1	> 1	251	CC(C)Oc1ccccc1N1CCC2CN(CCCSc3nnc(-c4cnccn4)n3C)CC21 (stereo in doubt; 35b)	
136	27	> 5		0.14	> 5	0.095	> 5000	> 5	> 5	> 5	126	Cc1ncoc1-c1nnc(SCCCN2CC3CCN(c4ccc(F)cc4)C3C2)n1C (stereo in doubt; 9a)	half-life [2]: 18 min; Papp A→B ([8]; Caco-2, permeability): 17.5 ×10⁻⁶ cm/s; Vd [9]: 1.2 L/kg; clearance [16]: 53 mL/min/kg; Fa [17]: 22%
> 750	> 750	> 3			> 3		920	> 3	> 3	> 3	398	Cn1c(SCCCN2CC3CCN(c4ccccc4C(F)(F)F)C3C2)nnc1-c1cccnc1 (stereo in doubt; 52a)	Ki [18]: 2190 nM; Ki [21]: 631 nM
